Laboratory results as given in PubChem BioAssay AID330 (DTP/NCI, 2004).
Several values for one entry are separate records, joined by “and”; a condition that tells them apart may be missing. Equal entries are not always repeated. Toxic doses and inconclusive results are not listed. How the source made its calls: active means survival T/C of 150% or more; inactive means T/C below 125% in these data. Peptide text beside a SMILES is read from it. * marks the point of attachment. Cbz = O=C(OCc1ccccc1)*

Test system: P388 leukemia ip, CD2F1 mice, survival T/C
Test: NCI In Vivo Anticancer Drug Screen. Data for tumor model P388 Leukemia (intraperitoneal) in CD2F1 (CDF1) mice
Settings: endpoint: median survival time, higher = longer survival
How it was run: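 Mice carrying the transplanted tumor received test compound or vehicle. Survival was recorded in each group, and the value is the treated-group measurement divided by that of the vehicle-treated control group.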

[1] = dose: 50.0 mg/kg/injection, schedule: Q01DX005 (ip), vehicle: saline with Tween-80
[2] = dose: 100.0 mg/kg/injection, schedule: Q01DX005 (ip), vehicle: saline with Tween-80
[3] = dose: 100.0 mg/kg/injection, schedule: Q04DX002 (ip), vehicle: saline with Tween-80
[4] = dose: 200.0 mg/kg/injection, schedule: Q04DX002 (ip), vehicle: saline with Tween-80
[5] = dose: 50.0 mg/kg/injection, schedule: Q01DX005 (ip), vehicle: Klucel (hydroxypropylcellulose) (HPC)
[6] = dose: 100.0 mg/kg/injection, schedule: Q01DX005 (ip), vehicle: Klucel (hydroxypropylcellulose) (HPC)
[7] = dose: 200.0 mg/kg/injection, schedule: Q01DX005 (ip), vehicle: Klucel (hydroxypropylcellulose) (HPC)
[8] = dose: 50.0 mg/kg/injection, schedule: Q01DX009 (ip), vehicle: saline with Tween-80
[9] = dose: 100.0 mg/kg/injection, schedule: Q01DX009 (ip), vehicle: saline with Tween-80
[10] = dose: 200.0 mg/kg/injection, schedule: Q01DX009 (ip), vehicle: saline with Tween-80
[11] = dose: 60.0 mg/kg/injection, schedule: Q01DX005 (ip), vehicle: Klucel (hydroxypropylcellulose) (HPC)
[12] = dose: 120.0 mg/kg/injection, schedule: Q01DX005 (ip), vehicle: Klucel (hydroxypropylcellulose) (HPC)
[13] = dose: 240.0 mg/kg/injection, schedule: Q01DX005 (ip), vehicle: Klucel (hydroxypropylcellulose) (HPC)
[14] = dose: 50.0 mg/kg/injection, schedule: Q04DX003 (ip), vehicle: saline
[15] = dose: 200.0 mg/kg/injection, schedule: Q01DX005 (ip), vehicle: saline with Tween-80
[16] = dose: 100.0 mg/kg/injection, schedule: Q04DX003 (ip), vehicle: saline with Tween-80
[17] = dose: 200.0 mg/kg/injection, schedule: Q04DX003 (ip), vehicle: saline with Tween-80
[18] = dose: 400.0 mg/kg/injection, schedule: Q01DX009 (ip), vehicle: saline with Tween-80
[19] = dose: 400.0 mg/kg/injection, schedule: Q04DX003 (ip), vehicle: saline with Tween-80
[20] = dose: 25.0 mg/kg/injection, schedule: Q01DX009 (ip), vehicle: saline
[21] = dose: 50.0 mg/kg/injection, schedule: Q01DX009 (ip), vehicle: saline

Measured: T/C

CC(C)CC(NC(=O)C(Cc1ccccc1)NC(=O)OCc1ccccc1)C(=O)O (stereo not drawn) (Cbz-Phe-Leu-OH; configuration not given here)
inactive: [1] 108 % of control | [2] 105 % of control

C1CCCC2(CCC1)OCCO2
inactive: dose: 100.0 mg/kg/injection, schedule: Q04DX003 (ip), vehicle: Klucel (hydroxypropylcellulose) (HPC) 106 % of control | dose: 200.0 mg/kg/injection, schedule: Q04DX003 (ip), vehicle: Klucel (hydroxypropylcellulose) (HPC) 102 % of control | dose: 400.0 mg/kg/injection, schedule: Q04DX003 (ip), vehicle: Klucel (hydroxypropylcellulose) (HPC) 95 % of control

CCOC(=O)C1Cc2nc(N)ncc2C1=O (stereo unspecified)
inactive: dose: 15.0 mg/kg/injection, schedule: Q01DX009 (ip), vehicle: saline with Tween-80 96 % of control | dose: 30.0 mg/kg/injection, schedule: Q01DX009 (ip), vehicle: saline with Tween-80 107 % of control | dose: 60.0 mg/kg/injection, schedule: Q01DX009 (ip), vehicle: saline with Tween-80 114 % of control

O=Cc1ccccc1-c1ccccc1C=O
inactive: [3] 106 % of control | [4] 103 % of control

COc1ccc2ncc(COC(C)=O)c(COC(C)=O)c2c1
inactive: [5] 99 % of control | [6] 98 % of control | [7] 102 % of control

CC1(C)CC(OC(=O)Oc2c3ccccc3c3ccc4cccc5ccc2c3c54)CC(C)(C)N1O
inactive: [8] 97 % of control | [9] 97 % of control | [10] 103 % of control

CC(C)CC(=O)Cc1nc2n(c1O)C(=N)N=N2
inactive: dose: 60.0 mg/kg/injection, schedule: Q01DX005 (ip), vehicle: saline 105 % of control | dose: 120.0 mg/kg/injection, schedule: Q01DX005 (ip), vehicle: saline 98 % of control | dose: 240.0 mg/kg/injection, schedule: Q01DX005 (ip), vehicle: saline 110 % of control

O=C1C2=C(/C=C/c3ccccc3)OCCC2=NN1c1ccccc1
inactive: [11] 94 % of control | [12] 98 % of control | [13] 109 % of control

NC(CC1C=CCCC1)C(=O)O (stereo unspecified)
inactive: [11] 98 % of control | [12] 98 % of control | [13] 95 % of control

CCOC(=O)c1cnc(N(C)C)nc1SC(=N)N
inactive: [14] 100 % of control | dose: 100.0 mg/kg/injection, schedule: Q04DX003 (ip), vehicle: saline 95 % of control | dose: 200.0 mg/kg/injection, schedule: Q04DX003 (ip), vehicle: saline 104 % of control

C1=C(/c2ccccc2)NCCN=C(c2ccccc2)CS/1
inactive: [1] 104 % of control | [2] 101 % of control | [15] 101 % of control

Nc1nc(N)c2[nH]cnc2n1
inactive: dose: 6.25 mg/kg/injection, schedule: Q01DX009 (ip), vehicle: other 111 % of control | dose: 12.5 mg/kg/injection, schedule: Q01DX009 (ip), vehicle: other 100 % of control | dose: 25.0 mg/kg/injection, schedule: Q01DX009 (ip), vehicle: other 104 % of control | dose: 50.0 mg/kg/injection, schedule: Q01DX009 (ip), vehicle: other 95 % of control | [8] 90 % of control | dose: 50.0 mg/kg/injection, schedule: Q04DX003 (ip), vehicle: saline with Tween-80 108 % of control | dose: 100.0 mg/kg/injection, schedule: Q01DX009 (ip), vehicle: other 106 % of control | [9] 90 % of control | [16] 108 % of control | [10] 100 % of control | [17] 108 % of control | [18] 90 % of control | [19] 91 % of control

NNC(=O)c1nc2ccccc2s1
inactive: dose: 37.5 mg/kg/injection, schedule: Q04DX003 (ip), vehicle: saline with Tween-80 100 % of control | dose: 75.0 mg/kg/injection, schedule: Q04DX003 (ip), vehicle: saline with Tween-80 100 % of control | dose: 150.0 mg/kg/injection, schedule: Q04DX003 (ip), vehicle: saline with Tween-80 95 % of control

CCN(CC)CCCNc1c(O)cc(C)c2sc3ccccc3c(=O)c12
inactive: [8] 94 % of control | [9] 94 % of control | [10] 100 % of control

O=C1C=C(N2CCN(CCO)CC2)C(=O)c2c(N3CCN(CCO)CC3)cc(N3CCN(CCO)CC3)nc21
inactive: dose: 50.0 mg/kg/injection, schedule: Q01DX005 (ip), vehicle: saline 97 % of control | dose: 100.0 mg/kg/injection, schedule: Q01DX005 (ip), vehicle: saline 93 % of control | dose: 200.0 mg/kg/injection, schedule: Q01DX005 (ip), vehicle: saline 93 % of control

NC(=O)C1CC2(c3ccccn3)c3ccccc3C1c1ccccc12 (stereo unspecified)
inactive: [5] 96 % of control | [6] 90 % of control | [7] 88 % of control

O=C(O)CC1C(=O)OC2C3COC(=O)c4cc(O)c(O)c(O)c4-c4c(cc(O)c(O)c4O)C(=O)OC2C(OC(=O)c2cc(O)c(O)c4c2C1C(O)C(=O)O4)C(OC(=O)c1cc(O)c(O)c(O)c1)O3 (stereo unspecified)
inactive: dose: 0.78 mg/kg/injection, schedule: Q01DX009 (ip), vehicle: saline 99 % of control | dose: 1.56 mg/kg/injection, schedule: Q01DX009 (ip), vehicle: saline 102 % of control | dose: 3.12 mg/kg/injection, schedule: Q01DX009 (ip), vehicle: saline 98 % of control | dose: 6.25 mg/kg/injection, schedule: Q01DX009 (ip), vehicle: saline 100 % of control and 121 % of control | dose: 12.5 mg/kg/injection, schedule: Q01DX009 (ip), vehicle: saline 111 % of control and 93 % of control | [20] 107 % of control and 97 % of control | [21] 116 % of control and 97 % of control

S=C=NCCc1ccccc1
inactive: dose: 12.5 mg/kg/injection, schedule: Q01DX009 (ip), vehicle: saline with Tween-80 116 % of control | dose: 22.0 mg/kg/injection, schedule: Q01DX009 (ip), vehicle: saline with Tween-80 115 % of control | [8] 114 % of control

COc1cccc2c1C(=O)c1c(O)c3c(c(O)c1C2=O)C[C@@](O)(C(C)=O)CC3OC1CC(NC(=O)CCCN)C(O)C(C)O1 (stereo partly specified)
inactive: dose: 6.25 mg/kg/injection, schedule: Q04DX003 (ip), vehicle: saline 98 % of control | dose: 12.5 mg/kg/injection, schedule: Q04DX003 (ip), vehicle: saline 97 % of control | dose: 25.0 mg/kg/injection, schedule: Q04DX003 (ip), vehicle: saline 100 % of control | [14] 104 % of control

C=CCC12CC(C)OC1=Nc1ccccc1NC2=O (stereo unspecified)
inactive: [1] 98 % of control | [2] 100 % of control | [15] 104 % of control

CN1N(C)P(=S)(Oc2ccccc2)N(C)N(C)P1(=S)Oc1ccccc1 (stereo unspecified)
inactive: [11] 98 % of control | [12] 98 % of control | [13] 93 % of control

Oc1c(Br)cc(Br)c2ccccc12
inactive: [9] 105 % of control | [10] 114 % of control | [18] 111 % of control

C=C1C(=O)OC2C1CCC1(C)CC(Br)C(=O)C(C)C21 (stereo unspecified)
inactive: dose: 50.0 mg/kg/injection, schedule: Q04DX002 (ip), vehicle: saline with Tween-80 104 % of control and 108 % of control and 95 % of control | [3] 100 % of control and 111 % of control and 112 % of control | [4] 106 % of control and 108 % of control | dose: 400.0 mg/kg/injection, schedule: Q04DX002 (ip), vehicle: saline with Tween-80 104 % of control

CC[C@@H]1C[C@@H]2CN3CCc4c([nH]c5ccc(OC)c(Cc6ccc(OC)c(OC)c6)c45)C(C(=O)OC)(C2)C13
inactive: dose: 2.5 mg/kg/injection, schedule: Q01DX009 (ip), vehicle: Klucel (hydroxypropylcellulose) (HPC) 88 % of control | dose: 5.0 mg/kg/injection, schedule: Q01DX009 (ip), vehicle: Klucel (hydroxypropylcellulose) (HPC) 103 % of control | dose: 10.0 mg/kg/injection, schedule: Q01DX009 (ip), vehicle: Klucel (hydroxypropylcellulose) (HPC) 92 % of control | dose: 20.0 mg/kg/injection, schedule: Q01DX009 (ip), vehicle: Klucel (hydroxypropylcellulose) (HPC) 95 % of control

O=C(NCCCBr)Nc1cccc2c1CCCC2
inactive: [9] 100 % of control | [16] 100 % of control | [10] 100 % of control | [17] 108 % of control | [18] 100 % of control | [19] 100 % of control

CC(=NC(C)(C)C)N1CCCCC1
inactive: [20] 106 % of control | [21] 100 % of control and 90 % of control | dose: 100.0 mg/kg/injection, schedule: Q01DX009 (ip), vehicle: saline 105 % of control
